Results: ChEMBL document CHEMBL3046502, “In vitro antimicrobial and antitubercular studies of novel 6-substituted (pyrrolidin-1-yl)-2(1H)-pyridinones” (2012)
In brackets after ≈: the same amount, converted by molar mass.

Experiments:
Assay type in all cases: functional
Pseudomonas aeruginosa = assay: Antimicrobial activity against Pseudomonas aeruginosa MTCC 2488 by broth microdilution method
Escherichia coli = assay: Antimicrobial activity against Escherichia coli MTCC 442 by broth microdilution method
Aspergillus niger = assay: Antimicrobial activity against Aspergillus niger MTCC 282
Candida albicans = assay: Antimicrobial activity against Candida albicans MTCC 227
Streptococcus pyogenes = assay: Antimicrobial activity against Streptococcus pyogenes MTCC 443 by broth microdilution method
Staphylococcus aureus = assay: Antimicrobial activity against Staphylococcus aureus MTCC 96 by broth microdilution method
Aspergillus clavatus = assay: Antimicrobial activity against Aspergillus clavatus MTCC 1323

| SMILES | MIC (Pseudomonas aeruginosa) | MIC (Escherichia coli) | MIC (Aspergillus niger) | MIC (Candida albicans) | MIC (Streptococcus pyogenes) | MIC (Staphylococcus aureus) | MIC (Aspergillus clavatus) |
| --- | --- | --- | --- | --- | --- | --- | --- |
| COc1ccc(-c2cc(=O)n(-c3cccc(Cl)c3)c(N3CCCC3)c2/N=N/c2cccc(C)c2)cc1 | 250 µg/mL (≈ 501 µM) | 250 µg/mL (≈ 501 µM) | 500 µg/mL (≈ 1000 µM) | 500 µg/mL (≈ 1000 µM) | 200 µg/mL (≈ 401 µM) | 250 µg/mL (≈ 501 µM) | 500 µg/mL (≈ 1000 µM) |
| COC1=CC(=O)C[C@@H](C)[C@]12Oc1c(Cl)c(OC)cc(OC)c1C2=O [GRISEOFULVIN] | – | – | 100 µg/mL (≈ 283 µM) | 500 µg/mL (≈ 1420 µM) | – | – | 100 µg/mL (≈ 283 µM) |
| COc1ccc(-c2cc(N3CCCC3)n(-c3cccc(Cl)c3)c(=O)c2/N=N/c2ccc(Cl)cc2)cc1 | 500 µg/mL (≈ 963 µM) | 500 µg/mL (≈ 963 µM) | 1000 µg/mL (≈ 1930 µM) | 1000 µg/mL (≈ 1930 µM) | 500 µg/mL (≈ 963 µM) | 500 µg/mL (≈ 963 µM) | 1000 µg/mL (≈ 1930 µM) |
| COc1ccc(-c2cc(Cl)n(-c3cccc(Cl)c3)c(=O)c2)cc1 | 100 µg/mL (≈ 289 µM) | 100 µg/mL (≈ 289 µM) | 500 µg/mL (≈ 1440 µM) | 500 µg/mL (≈ 1440 µM) | 200 µg/mL (≈ 578 µM) | 200 µg/mL (≈ 578 µM) | 500 µg/mL (≈ 1440 µM) |
| COc1ccc(-c2cc(=O)n(-c3cccc(Cl)c3)c(N3CCCC3)c2/N=N/c2c(Cl)cc([N+](=O)[O-])c(Cl)c2Cl)cc1 | 250 µg/mL (≈ 395 µM) | 250 µg/mL (≈ 395 µM) | 1000 µg/mL (≈ 1580 µM) | 250 µg/mL (≈ 395 µM) | 200 µg/mL (≈ 316 µM) | 200 µg/mL (≈ 316 µM) | 1000 µg/mL (≈ 1580 µM) |
| COc1ccc(-c2cc(N3CCCC3)n(-c3cccc(Cl)c3)c(=O)c2/N=N/c2ccccc2[N+](=O)[O-])cc1 | 200 µg/mL (≈ 377 µM) | 100 µg/mL (≈ 189 µM) | 500 µg/mL (≈ 943 µM) | 500 µg/mL (≈ 943 µM) | 100 µg/mL (≈ 189 µM) | 100 µg/mL (≈ 189 µM) | 500 µg/mL (≈ 943 µM) |
| COc1ccc(-c2cc(=O)n(-c3cccc(Cl)c3)c(N3CCCC3)c2/N=N/c2ccc([N+](=O)[O-])cc2Cl)cc1 | 250 µg/mL (≈ 443 µM) | 250 µg/mL (≈ 443 µM) | 500 µg/mL (≈ 886 µM) | 500 µg/mL (≈ 886 µM) | 200 µg/mL (≈ 354 µM) | 200 µg/mL (≈ 354 µM) | 500 µg/mL (≈ 886 µM) |
| COc1ccc(-c2cc(N3CCCC3)n(-c3cccc(Cl)c3)c(=O)c2/N=N/c2cccc([N+](=O)[O-])c2)cc1 | 200 µg/mL (≈ 377 µM) | 200 µg/mL (≈ 377 µM) | 500 µg/mL (≈ 943 µM) | 500 µg/mL (≈ 943 µM) | 250 µg/mL (≈ 472 µM) | 250 µg/mL (≈ 472 µM) | 500 µg/mL (≈ 943 µM) |
| O=C(O)c1cn(C2CC2)c2cc(N3CCNCC3)c(F)cc2c1=O [CIPROFLOXACIN] | – | 25 µg/mL (≈ 75.4 µM) | – | – | 50 µg/mL (≈ 151 µM) | 50 µg/mL (≈ 151 µM) | – |
| COc1ccc(-c2cc(N3CCCC3)n(-c3cccc(Cl)c3)c(=O)c2/N=N/c2ccccc2)cc1 | 100 µg/mL (≈ 206 µM) | 62.5 µg/mL (≈ 129 µM) | 500 µg/mL (≈ 1030 µM) | 200 µg/mL (≈ 412 µM) | 250 µg/mL (≈ 515 µM) | 200 µg/mL (≈ 412 µM) | 500 µg/mL (≈ 1030 µM) |
| COc1ccc(-c2cc(N3CCCC3)n(-c3cccc(Cl)c3)c(=O)c2CN2CCCC2)cc1 | 500 µg/mL (≈ 1080 µM) | 250 µg/mL (≈ 539 µM) | 500 µg/mL (≈ 1080 µM) | 500 µg/mL (≈ 1080 µM) | 500 µg/mL (≈ 1080 µM) | 500 µg/mL (≈ 1080 µM) | 1000 µg/mL (≈ 2160 µM) |
| COc1ccc(-c2cc(N3CCCC3)n(-c3cccc(Cl)c3)c(=O)c2/N=N/c2ccc(C)cc2)cc1 | 200 µg/mL (≈ 401 µM) | 200 µg/mL (≈ 401 µM) | 250 µg/mL (≈ 501 µM) | 250 µg/mL (≈ 501 µM) | 200 µg/mL (≈ 401 µM) | 200 µg/mL (≈ 401 µM) | 250 µg/mL (≈ 501 µM) |
| COc1ccc(-c2cc(=O)n(-c3cccc(Cl)c3)c(N3CCCC3)c2/N=N/c2ccccc2Cl)cc1 | 100 µg/mL (≈ 193 µM) | 250 µg/mL (≈ 481 µM) | 500 µg/mL (≈ 963 µM) | 250 µg/mL (≈ 481 µM) | 250 µg/mL (≈ 481 µM) | 250 µg/mL (≈ 481 µM) | 250 µg/mL (≈ 481 µM) |
| COc1ccc(-c2cc(=O)n(-c3cccc(Cl)c3)c(N3CCCC3)c2/N=N/c2ccccc2C)cc1 | 500 µg/mL (≈ 1000 µM) | 200 µg/mL (≈ 401 µM) | 1000 µg/mL (≈ 2000 µM) | 250 µg/mL (≈ 501 µM) | 500 µg/mL (≈ 1000 µM) | 500 µg/mL (≈ 1000 µM) | 1000 µg/mL (≈ 2000 µM) |
| COc1ccc(-c2cc(=O)n(-c3cccc(Cl)c3)c(N3CCCC3)c2/N=N/c2cccc([N+](=O)[O-])c2)cc1 | 200 µg/mL (≈ 377 µM) | 250 µg/mL (≈ 472 µM) | 500 µg/mL (≈ 943 µM) | 500 µg/mL (≈ 943 µM) | 250 µg/mL (≈ 472 µM) | 250 µg/mL (≈ 472 µM) | 500 µg/mL (≈ 943 µM) |
| COc1ccc(-c2cc(N3CCCC3)n(-c3cccc(Cl)c3)c(=O)c2/N=N/c2cccc(Cl)c2)cc1 | 500 µg/mL (≈ 963 µM) | 500 µg/mL (≈ 963 µM) | 500 µg/mL (≈ 963 µM) | 250 µg/mL (≈ 481 µM) | 100 µg/mL (≈ 193 µM) | 100 µg/mL (≈ 193 µM) | 500 µg/mL (≈ 963 µM) |
| COc1ccc(-c2cc(N3CCCC3)n(-c3cccc(Cl)c3)c(=O)c2/N=N/c2cccc(C)c2)cc1 | 250 µg/mL (≈ 501 µM) | 250 µg/mL (≈ 501 µM) | 500 µg/mL (≈ 1000 µM) | 500 µg/mL (≈ 1000 µM) | 200 µg/mL (≈ 401 µM) | 150 µg/mL (≈ 301 µM) | 500 µg/mL (≈ 1000 µM) |
| COc1ccc(-c2cc(=O)n(-c3cccc(Cl)c3)c(N3CCCC3)c2/N=N/c2ccc([N+](=O)[O-])cc2)cc1 | 250 µg/mL (≈ 472 µM) | 250 µg/mL (≈ 472 µM) | > 1000 µg/mL | 500 µg/mL (≈ 943 µM) | 250 µg/mL (≈ 472 µM) | 500 µg/mL (≈ 943 µM) | 500 µg/mL (≈ 943 µM) |
| COc1ccc(-c2cc(N3CCCC3)n(-c3cccc(Cl)c3)c(=O)c2/N=N/c2ccccc2C)cc1 | 500 µg/mL (≈ 1000 µM) | 200 µg/mL (≈ 401 µM) | 1000 µg/mL (≈ 2000 µM) | 1000 µg/mL (≈ 2000 µM) | 500 µg/mL (≈ 1000 µM) | 500 µg/mL (≈ 1000 µM) | 1000 µg/mL (≈ 2000 µM) |
| COc1ccc(-c2cc(=O)n(-c3cccc(Cl)c3)c(N3CCCC3)c2/N=N/c2ccc(Cl)c(Cl)c2)cc1 | 200 µg/mL (≈ 361 µM) | 62.5 µg/mL (≈ 113 µM) | 500 µg/mL (≈ 903 µM) | 100 µg/mL (≈ 181 µM) | 500 µg/mL (≈ 903 µM) | 200 µg/mL (≈ 361 µM) | 1000 µg/mL (≈ 1810 µM) |
| COc1ccc(-c2cc(=O)n(-c3cccc(Cl)c3)c(N3CCCC3)c2/N=N/c2cccc(Cl)c2)cc1 | 500 µg/mL (≈ 963 µM) | 500 µg/mL (≈ 963 µM) | 500 µg/mL (≈ 963 µM) | 250 µg/mL (≈ 481 µM) | 100 µg/mL (≈ 193 µM) | 100 µg/mL (≈ 193 µM) | 500 µg/mL (≈ 963 µM) |
| COc1ccc(-c2cc(=O)n(-c3cccc(Cl)c3)c(N3CCCC3)c2/N=N/c2ccc(Cl)cc2)cc1 | 500 µg/mL (≈ 963 µM) | 100 µg/mL (≈ 193 µM) | 500 µg/mL (≈ 963 µM) | 100 µg/mL (≈ 193 µM) | 500 µg/mL (≈ 963 µM) | 500 µg/mL (≈ 963 µM) | 500 µg/mL (≈ 963 µM) |
| COc1ccc(-c2cc(=O)n(-c3cccc(Cl)c3)c(N3CCCC3)c2/N=N/c2ccccc2)cc1 | 500 µg/mL (≈ 1030 µM) | 250 µg/mL (≈ 515 µM) | 250 µg/mL (≈ 515 µM) | 500 µg/mL (≈ 1030 µM) | 250 µg/mL (≈ 515 µM) | 250 µg/mL (≈ 515 µM) | 500 µg/mL (≈ 1030 µM) |
| CC1(C)S[C@@H]2[C@H](NC(=O)[C@H](N)c3ccccc3)C(=O)N2[C@H]1C(=O)O [AMPICILLIN] | 100 µg/mL (≈ 286 µM) | 100 µg/mL (≈ 286 µM) | – | – | 100 µg/mL (≈ 286 µM) | 250 µg/mL (≈ 715 µM) | – |
| COc1ccc(-c2cc(=O)n(-c3cccc(Cl)c3)c(N3CCCC3)c2/N=N/c2ccc(C)cc2)cc1 | 250 µg/mL (≈ 501 µM) | 200 µg/mL (≈ 401 µM) | 250 µg/mL (≈ 501 µM) | 250 µg/mL (≈ 501 µM) | 200 µg/mL (≈ 401 µM) | 200 µg/mL (≈ 401 µM) | 500 µg/mL (≈ 1000 µM) |
| COc1ccc(-c2cc(N3CCCC3)n(-c3cccc(Cl)c3)c(=O)c2/N=N/c2ccc([N+](=O)[O-])cc2)cc1 | 250 µg/mL (≈ 472 µM) | 250 µg/mL (≈ 472 µM) | > 1000 µg/mL | 250 µg/mL (≈ 472 µM) | 250 µg/mL (≈ 472 µM) | 250 µg/mL (≈ 472 µM) | > 1000 µg/mL |
| COc1ccc(-c2cc(N3CCCC3)n(-c3cccc(Cl)c3)c(=O)c2/N=N/c2cc(Cl)ccc2Cl)cc1 | 500 µg/mL (≈ 903 µM) | 250 µg/mL (≈ 451 µM) | > 1000 µg/mL | 1000 µg/mL (≈ 1810 µM) | 500 µg/mL (≈ 903 µM) | 500 µg/mL (≈ 903 µM) | > 1000 µg/mL |
| COc1ccc(-c2cc(N3CCCC3)n(-c3cccc(Cl)c3)c(=O)c2/N=N/c2c(Cl)cc([N+](=O)[O-])cc2Cl)cc1 | 250 µg/mL (≈ 417 µM) | 250 µg/mL (≈ 417 µM) | 1000 µg/mL (≈ 1670 µM) | 250 µg/mL (≈ 417 µM) | 200 µg/mL (≈ 334 µM) | 200 µg/mL (≈ 334 µM) | 1000 µg/mL (≈ 1670 µM) |
